One assay has as its target T1, Tyk2 (Homo sapiens, UniProt P29597).
T1 construct: made in house; host or cells: T7 phage display, or HEK-293 cells (alternative)
Kind of assay: Competition binding assay to determine Kd against JAK kinases: Tyk2. The text has this:
(§1) Competition Binding Assay to Determine Binding Constants (Kd) of the Compounds Against JAK Kinases
(§2) Competition binding assays used herein were developed, validated and performed as described in Fabian et al., Nature Biotechnology 2005, 23, 329-336. Kinases were produced as fusions to T7 phage (See, Fabian et al. or WO04/015142) or alternatively, the kinases were expressed in HEK-293 cells and subsequently tagged with DNA for PCR detection (See, WO08/005,310). For the binding assays, streptavidin-coated magnetic beads were treated with biotinylated affinity ligands for 30 min at rt to generate affinity resins. The liganded beads were blocked with excess biotin and washed with blocking buffer (SeaBlock (Pierce), 1% BSA, 0.05% Tween 20, 1 mM DTT) to remove unbound ligand and to reduce non-specific binding. Binding reactions were assembled by combining kinase, liganded affinity beads, and test compounds in 1× binding buffer (20% SeaBlock, 0.17×PBS, 0.05% Tween 20, 6 mM DTT). Test compounds were prepared as 100× stocks in DMSO and rapidly diluted into the aqueous environment. DMSO was added to control assays lacking a test compound. Primary screen interactions were performed in polypropylene 384-well plates in a final volume of 34 μL, while Kd determinations were performed in polystyrene 96-well plates in a final volume of 135 μL. The assay plates were incubated at room temperature with shaking for 1 hour, long enough for binding reactions to reach equilibrium, and the affinity beads were washed extensively with wash buffer (1×PBS, 0.05% Tween 20) to remove unbound protein. The beads were then resuspended in elution buffer (1×PBS, 0.05% Tween 20, 2 μM non-biotinylated affinity ligand) and incubated at room temperature with shaking for 30 min. The kinase concentration in the eluates was measured by quantitative PCR. Each kinase was tested individually against each compound. Kds were determined using eleven serial threefold dilutions. A selectivity score, which is a quantitative measure of selectivity of a compound against a panel of enzymes, may be calculated for a compound by dividing the number of enzymes for which a compound meets a set criteria, (for example, a binding constant of 100 nM or less), by the total number of enzymes tested.

In the next assay the target is T2, JAK2 (Homo sapiens, UniProt O60674).
T2 construct: made in house; host or cells: T7 phage display, or HEK-293 cells (alternative)
T2 sequence (O60674 whole entry): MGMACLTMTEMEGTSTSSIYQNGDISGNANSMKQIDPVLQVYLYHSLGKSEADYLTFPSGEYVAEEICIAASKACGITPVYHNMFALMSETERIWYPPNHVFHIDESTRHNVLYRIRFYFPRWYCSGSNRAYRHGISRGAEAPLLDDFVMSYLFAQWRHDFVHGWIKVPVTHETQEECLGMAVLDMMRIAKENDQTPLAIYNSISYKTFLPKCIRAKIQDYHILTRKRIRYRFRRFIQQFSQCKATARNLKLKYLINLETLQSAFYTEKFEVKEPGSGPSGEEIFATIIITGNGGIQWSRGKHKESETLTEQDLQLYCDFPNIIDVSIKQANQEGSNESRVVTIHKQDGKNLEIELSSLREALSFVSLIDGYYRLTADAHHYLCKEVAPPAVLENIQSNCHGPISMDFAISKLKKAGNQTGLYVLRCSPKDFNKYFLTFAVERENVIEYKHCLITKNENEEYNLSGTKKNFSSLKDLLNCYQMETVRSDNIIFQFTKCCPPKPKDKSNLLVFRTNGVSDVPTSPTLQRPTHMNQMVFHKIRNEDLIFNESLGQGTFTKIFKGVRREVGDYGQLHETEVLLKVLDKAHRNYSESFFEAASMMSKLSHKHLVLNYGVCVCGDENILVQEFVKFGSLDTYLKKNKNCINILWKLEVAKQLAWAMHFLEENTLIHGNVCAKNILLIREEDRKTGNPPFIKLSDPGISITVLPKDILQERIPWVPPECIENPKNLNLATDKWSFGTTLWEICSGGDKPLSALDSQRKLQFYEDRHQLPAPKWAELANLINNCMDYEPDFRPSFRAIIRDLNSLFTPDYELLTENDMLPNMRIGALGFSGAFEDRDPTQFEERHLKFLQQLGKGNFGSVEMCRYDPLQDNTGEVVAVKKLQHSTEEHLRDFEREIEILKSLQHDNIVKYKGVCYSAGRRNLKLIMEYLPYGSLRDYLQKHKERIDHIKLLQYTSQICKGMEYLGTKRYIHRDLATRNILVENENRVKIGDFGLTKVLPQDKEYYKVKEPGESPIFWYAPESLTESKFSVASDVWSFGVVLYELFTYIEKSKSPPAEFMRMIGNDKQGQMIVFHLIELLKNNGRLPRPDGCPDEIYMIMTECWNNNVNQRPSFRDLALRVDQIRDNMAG
Kind of assay: Competition binding assay to determine Kd against JAK kinases: JAK2.
From the text: as §1, §2

In another assay the target is T3, JAK3 (Homo sapiens, UniProt P52333).
T3 construct: made in house; host or cells: T7 phage display, or HEK-293 cells (alternative)
T3 sequence (P52333 1-1124): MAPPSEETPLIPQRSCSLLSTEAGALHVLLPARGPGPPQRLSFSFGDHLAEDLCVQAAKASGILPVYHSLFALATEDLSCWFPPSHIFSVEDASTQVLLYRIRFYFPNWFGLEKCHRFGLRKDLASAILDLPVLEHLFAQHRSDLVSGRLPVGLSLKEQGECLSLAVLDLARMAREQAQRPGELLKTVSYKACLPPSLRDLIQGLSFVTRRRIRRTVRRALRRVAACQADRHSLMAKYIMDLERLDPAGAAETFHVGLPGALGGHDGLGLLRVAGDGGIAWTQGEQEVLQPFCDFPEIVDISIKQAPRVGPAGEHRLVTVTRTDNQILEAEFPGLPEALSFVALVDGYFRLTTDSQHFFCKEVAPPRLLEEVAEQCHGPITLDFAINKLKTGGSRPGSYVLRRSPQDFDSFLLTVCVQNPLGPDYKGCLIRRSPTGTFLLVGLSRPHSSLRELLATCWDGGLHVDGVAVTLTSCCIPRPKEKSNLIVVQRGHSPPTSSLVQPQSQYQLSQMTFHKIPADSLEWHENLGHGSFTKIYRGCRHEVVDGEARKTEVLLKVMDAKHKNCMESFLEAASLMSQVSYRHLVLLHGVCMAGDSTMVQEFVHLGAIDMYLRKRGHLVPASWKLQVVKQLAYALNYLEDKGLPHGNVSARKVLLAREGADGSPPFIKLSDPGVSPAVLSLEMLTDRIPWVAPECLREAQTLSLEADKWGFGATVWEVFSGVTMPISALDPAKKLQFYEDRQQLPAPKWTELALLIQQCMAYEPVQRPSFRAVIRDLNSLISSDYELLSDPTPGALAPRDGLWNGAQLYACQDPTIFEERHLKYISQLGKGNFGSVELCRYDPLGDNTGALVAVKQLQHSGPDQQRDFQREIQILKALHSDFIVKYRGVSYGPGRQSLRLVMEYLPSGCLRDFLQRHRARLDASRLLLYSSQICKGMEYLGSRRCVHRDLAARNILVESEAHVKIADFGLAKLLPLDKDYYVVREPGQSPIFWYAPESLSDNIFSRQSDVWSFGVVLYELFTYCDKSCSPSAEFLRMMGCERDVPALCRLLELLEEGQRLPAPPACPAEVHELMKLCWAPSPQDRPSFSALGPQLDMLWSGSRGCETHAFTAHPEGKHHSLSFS
Kind of assay: Competition binding assay to determine Kd against JAK kinases: JAK3.
From the text: as §1, §2

The test system of assay [1] is GM-CSFR/JAK2/STAT5 pathway. In words: csTF-1 cell-based reporter assay. Particulars: Homo sapiens; csTF-1 cells, GM-CSF at 2 ng/mL, 4 hours; read-out: Cell Assay: CS TF-1 reporter assay IC50. How it is done: csTF-1 Cell-Based Reporter Assay
csTF-1 cells are derived from the human erythroleukemia cell line that is growth dependent on GM-CSF and has an intact GM-CSFR/JAK2/STAT5 pathway. The cell line contains stably integrated beta-lactamase reporter gene under the control of the […] (irf 1) response element recognized by the activated transcription factor STATS. csTF-1 cells (Invitrogen K1219) were washed with assay media (97% OPTIMEM/0.5% dialyzed FBS/0.1 mM NEAA/1 mM Na pyr/P/S) and seeded in the same media at 5×10^5 cell/mL in T150 flask. After 16 hour incubation, cells were seeded at 2×10^5 cell/well in 50 μl volume, into Costar, clear bottom, 96-well assay plates. Serial dilutions of compounds were added to the plates with final DMSO concentration at 0.5% and GM-CSF at 2 ng/mL and the plates were then incubated at […] and 5% CO2 for 4 hours. The plates were brought to room temperature before adding Substrate Mixture according to manufacturer's protocol (Invitrogen, Catalog #K1085). The assay plates containing the substrate mixture were incubated in the dark at room temperature for 2 hours. Blue and green fluorescence was measured with excitation at 409 nm and emission at 460 nm (for blue) and excitation at 409 nm and emission at 530 nm (for green) using Spectra Max Gemini EM.

T1 sequence (P29597 whole entry): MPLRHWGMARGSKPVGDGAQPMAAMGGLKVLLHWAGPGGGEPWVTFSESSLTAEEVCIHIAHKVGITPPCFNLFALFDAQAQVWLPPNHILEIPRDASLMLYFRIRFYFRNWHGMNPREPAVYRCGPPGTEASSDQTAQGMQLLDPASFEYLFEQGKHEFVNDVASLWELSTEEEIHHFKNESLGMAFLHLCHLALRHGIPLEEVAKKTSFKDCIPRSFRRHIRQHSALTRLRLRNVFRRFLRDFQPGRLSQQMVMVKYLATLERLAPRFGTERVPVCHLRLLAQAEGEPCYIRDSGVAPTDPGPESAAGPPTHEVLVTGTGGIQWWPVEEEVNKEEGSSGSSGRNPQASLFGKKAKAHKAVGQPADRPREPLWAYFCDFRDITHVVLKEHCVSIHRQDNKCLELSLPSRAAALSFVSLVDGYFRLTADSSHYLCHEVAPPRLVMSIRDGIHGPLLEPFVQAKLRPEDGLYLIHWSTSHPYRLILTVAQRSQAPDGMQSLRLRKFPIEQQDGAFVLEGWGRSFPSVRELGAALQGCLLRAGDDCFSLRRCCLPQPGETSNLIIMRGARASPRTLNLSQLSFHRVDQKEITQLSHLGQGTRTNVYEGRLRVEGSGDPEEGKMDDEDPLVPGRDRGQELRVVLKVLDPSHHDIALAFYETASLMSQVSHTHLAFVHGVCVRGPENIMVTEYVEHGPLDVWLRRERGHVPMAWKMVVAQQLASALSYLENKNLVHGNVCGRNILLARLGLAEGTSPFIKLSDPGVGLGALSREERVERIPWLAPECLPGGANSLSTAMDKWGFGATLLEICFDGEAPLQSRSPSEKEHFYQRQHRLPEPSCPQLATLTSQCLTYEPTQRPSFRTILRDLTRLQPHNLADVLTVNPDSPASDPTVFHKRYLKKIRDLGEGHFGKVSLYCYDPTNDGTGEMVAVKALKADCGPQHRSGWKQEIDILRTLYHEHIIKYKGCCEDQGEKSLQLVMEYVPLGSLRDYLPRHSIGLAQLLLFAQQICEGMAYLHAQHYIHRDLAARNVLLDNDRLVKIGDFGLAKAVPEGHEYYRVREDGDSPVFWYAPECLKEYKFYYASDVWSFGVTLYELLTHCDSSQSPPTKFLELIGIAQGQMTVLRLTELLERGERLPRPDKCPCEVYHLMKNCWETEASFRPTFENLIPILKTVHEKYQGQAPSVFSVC

Take `Cc1cc(Nc2nc(C(=O)c3ccc(F)cn3)nc3ccccc23)n[nH]1` [Example 1, (5-fluoropyridin-2-yl)(4-(5-methyl-1H-pyrazol-3-ylamino)quinazolin-2-yl)methanone]: the Kd on Tyk2 was no more than 10 nM; on JAK2, 1 to 10 nM; on JAK3 it was 10 to 100 nM. Besides, the IC50 in assay [1] was no more than 100 nM.

For `Cc1cc(Nc2nc(C(F)(F)c3ccc(F)cn3)nc3ccccc23)n[nH]1` [Example 2, 2-(difluoro(5-fluoropyridin-2-yl)methyl)-N-(5-methyl-1H-pyrazol-3-yl)quinazolin-4-amine], the results for the Kd at Tyk2, at JAK2 and on JAK3 were no more than 10 nM, no more than 1 nM and no more than 10 nM, respectively. In addition, the IC50 in assay [1] was no more than 100 nM.

Take `Cc1cc(Nc2nc(C(F)(F)c3ncc(F)cn3)nc3ccccc23)n[nH]1` [Example 3, 2-(difluoro(5-fluoropyrimidin-2-yl)methyl)-N-(5-methyl-1H-pyrazol-3-yl)quinazolin-4-amine]: the Kd is no more than 10 nM on Tyk2, no more than 1 nM on JAK2 and 10 to 100 nM on JAK3. Also, the concentration for half-maximal inhibition (IC50) in assay [1] was no more than 100 nM.

Take `Fc1ccc(C(F)(F)c2nc(Nc3cc[nH]n3)c3ccccc3n2)nc1` [Example 4, 2-(difluoro(5-fluoropyridin-2-yl)methyl)-N-(1H-pyrazol-3-yl)quinazolin-4-amine]: the Kd on Tyk2 is no more than 10 nM; on JAK2, no more than 1 nM; on JAK3 it was 10 to 100 nM. For the same compound, the IC50 in assay [1] was no more than 100 nM.

`COc1cc(Nc2nc(C(F)(F)c3ccc(F)cn3)nc3ccccc23)n[nH]1` [Example 5, 2-(difluoro(5-fluoropyridin-2-yl)methyl)-N-(5-methoxy-1H-pyrazol-3-yl)quinazolin-4-amine]: the values for the Kd at Tyk2, on JAK2 and at JAK3 were no more than 10 nM, no more than 1 nM and 10 to 100 nM, respectively. Further, in assay [1], the IC50 was 100 to 500 nM.

In the case of `COc1ccc2c(Nc3cc(C)[nH]n3)nc(C(F)(F)c3ccc(F)cn3)nc2c1` [Example 6, 2-(difluoro(5-fluoropyridin-2-yl)methyl)-7-methoxy-N-(5-methyl-1H-pyrazol-3-yl)quinazolin-4-amine], the Kd at Tyk2 was no more than 10 nM; at JAK2, no more than 1 nM; on JAK3, no more than 10 nM. For the same compound, the IC50 in assay [1] is no more than 100 nM.

As to `Cc1cc(Nc2nc(C(F)(F)c3ccc(F)cn3)nc3cc(Br)ccc23)n[nH]1` [Example 7, 7-bromo-2-(difluoro(5-fluoropyridin-2-yl)methyl)-N-(5-methyl-1H-pyrazol-3-yl)quinazolin-4-amine], the Kd at Tyk2 was no more than 10 nM; on JAK2, no more than 1 nM; at JAK3, no more than 10 nM. In addition, the IC50 in assay [1] is no more than 100 nM.

As for `Cc1cc(Nc2nc(C(F)(F)c3ccc(F)cn3)nc3cc(C#N)ccc23)n[nH]1` [Example 8, 2-(difluoro(5-fluoropyridin-2-yl)methyl)-4-(5-methyl-1H-pyrazol-3-ylamino)quinazoline-7-carbonitrile], the figures for the Kd on Tyk2, on JAK2 and at JAK3 were no more than 10 nM, 1 to 10 nM and 10 to 100 nM, respectively. The IC50 in assay [1] was no more than 100 nM.

On to `Cc1cc(Nc2nc(C(F)(F)c3ccc(F)cn3)nc3cc(C4CC4)ccc23)n[nH]1` [Example 9, 7-cyclopropyl-2-(difluoro(5-fluoropyridin-2-yl)methyl)-N-(5-methyl-1H-pyrazol-3-yl)quinazolin-4-amine], for which the Kd on Tyk2 was no more than 10 nM; on JAK2, no more than 1 nM; on JAK3, no more than 10 nM. The half-inhibitory concentration (IC50) in assay [1] was no more than 100 nM.

Turning to `Cc1cc(Nc2nc(C(F)(F)c3ccc(F)cn3)nc3c(C)cccc23)n[nH]1` [Example 10, 2-(Difluoro(5-fluoropyridin-2-yl)methyl)-8-methyl-N-(5-methyl-1H-pyrazol-3-yl)quinazolin-4-amine], the values for the equilibrium dissociation constant (Kd) at Tyk2, on JAK2 and on JAK3 were no more than 10 nM, no more than 1 nM and no more than 10 nM, respectively. In assay [1], the IC50 was no more than 100 nM.

Regarding `Cc1cc(Nc2nc(C(F)(F)c3ccc(F)cn3)nc3c(Br)cccc23)n[nH]1` [Example 11, 8-bromo-2-(difluoro(5-fluoropyridin-2-yl)methyl)-N-(5-methyl-1H-pyrazol-3-yl)quinazolin-4-amine], the Kd at Tyk2 was no more than 10 nM; at JAK2, no more than 1 nM; on JAK3 it was 10 to 100 nM. For the same compound, the IC50 in assay [1] fell in the range of 100 to 500 nM.

For the compound `Cc1cc(Nc2nc(C(F)(F)c3ccc(F)cn3)nc3c(F)cccc23)n[nH]1` [Example 12, 2-(difluoro(5-fluoropyridin-2-yl)methyl)-8-fluoro-N-(3-methyl-1H-pyrazol-5-yl)quinazolin-4-amine], the Kd on Tyk2 is no more than 10 nM; on JAK2, no more than 1 nM; at JAK3 it was no more than 10 nM. Also, the concentration for half-maximal inhibition (IC50) in assay [1] is no more than 100 nM.

`Cc1cc(Nc2nc(C(F)(F)c3ccc(F)cn3)nc3c(Cl)cccc23)n[nH]1` [Example 13, 8-chloro-2-(difluoro(5-fluoropyridin-2-yl)methyl)-N-(5-methyl-1H-pyrazol-3-yl)quinazolin-4-amine]: the Kd on Tyk2 was no more than 10 nM; at JAK2, no more than 1 nM; at JAK3 it was no more than 10 nM. Also, the 50% inhibitory concentration (IC50) in assay [1] is no more than 100 nM.

With `Cc1ccc2c(Nc3cc(C)[nH]n3)nc(C(F)(F)c3ccc(F)cn3)nc2c1` [Example 14, 2-(difluoro(5-fluoropyridin-2-yl)methyl)-7-methyl-N-(5-methyl-1H-pyrazol-3-yl)quinazolin-4-amine], the Kd is no more than 10 nM on Tyk2, no more than 1 nM at JAK2 and no more than 10 nM on JAK3. The IC50 in assay [1] is no more than 100 nM.

Regarding `COC(=O)c1cccc2c(Nc3cc(C)[nH]n3)nc(C(F)(F)c3ccc(F)cn3)nc12` [Example 47, methyl 2-(difluoro(5-fluoropyridin-2-yl)methyl)-4-((5-methyl-1H-pyrazol-3-yl)amino)quinazoline-8-carboxylate], the values for the Kd on Tyk2, on JAK2 and at JAK3 were no more than 10 nM, no more than 1 nM and no more than 10 nM, respectively.

Values taken from patent US8633207B2, “Quinazoline compounds and methods of use thereof” (Ambit Biosciences Corporation, priority 2010, dated 2014).
